pIC50: −log10 of the molar value.
Tests used:
[1] = Selectivity index, ratio of IC50 for HEK293 cells to IC50 for human HCT-116 cells; details: HEK293 cells versus HCT-116 cells
[2] = Selectivity index, ratio of IC50 for HEK293 cells to IC50 for human MCF7 cells; details: HEK293 cells versus MCF7 cells
[3] = Selectivity index, ratio of IC50 for HEK293 cells to IC50 for human MDA-MB-231 cells; details: HEK293 cells versus MDA-MB-231 cells
[4] = test system: MDA-MB-231; experiment: Antiproliferative activity against human MDA-MB-231 cells incubated for 72 hrs by MTT assay; details: MDA-MB-231, 72 h
[5] = test system: MCF7; experiment: Antiproliferative activity against human MCF7 cells incubated for 72 hrs by MTT assay; details: MCF7, 72 h

| pIC50 [4] | pIC50 [5] | SMILES | selectivity ratio [1] | selectivity ratio [2] | selectivity ratio [3] |
| --- | --- | --- | --- | --- | --- |
| 5.39 | 5.64 | Cc1cc2c(cc1Cl)SC(/N=C(/N)Nc1cnc3ccccc3c1)=NS2(=O)=O | > 65 | > 65 | > 65 |
| 5.24 | 5.51 | Cc1cc2c(cc1Cl)SC(/N=C(/N)Nc1ccnc3ccccc13)=NS2(=O)=O | > 65 | > 65 | > 65 |
| 5.39 | 5.60 | Cc1cc2c(cc1Cl)SC(/N=C(/N)Nc1ccc3nccnc3c1)=NS2(=O)=O | > 65 | > 65 | > 65 |
| 5.21 | 5.46 | COc1cc2nccc(N/C(N)=N\C3=NS(=O)(=O)c4cc(C)c(Cl)cc4S3)c2cc1OC | > 65 | > 65 | > 65 |
| 5.27 | 5.44 | Cc1cc2c(cc1Cl)SC(/N=C(/N)Nc1cccc3ncccc13)=NS2(=O)=O | > 65 | > 65 | > 65 |
| 5.28 | 5.54 | CC(=O)c1cn(C)c2ccc(N/C(N)=N\C3=NS(=O)(=O)c4cc(C)c(Cl)cc4S3)cc12 | > 65 | > 65 | > 65 |
| 5.40 | 5.60 | COc1nc(N/C(N)=N\C2=NS(=O)(=O)c3cc(C)c(Cl)cc3S2)c2ccn(C)c2n1 | > 65 | > 65 | > 65 |
| 5.36 | 5.49 | Cc1cc2c(cc1Cl)SC(/N=C(/N)Nc1ccc3cc(O)ccc3c1)=NS2(=O)=O | > 65 | > 65 | > 65 |
| 5.24 | 5.40 | Cc1cc2c(cc1Cl)SC(/N=C(/N)Nc1ccc3c(ccc(=O)n3C)c1)=NS2(=O)=O | > 65 | > 65 | > 65 |
| 5.37 | 5.52 | COc1ccc2ccccc2c1N/C(N)=N\C1=NS(=O)(=O)c2cc(C)c(Cl)cc2S1 | > 65 | > 65 | > 65 |
| 5.24 | 5.42 | Cc1cc2c(cc1Cl)SC(/N=C(/N)Nc1ccc3ncccc3c1)=NS2(=O)=O | > 65 | > 65 | > 65 |
| 5.14 | 5.27 | Cc1cc2c(cc1Cl)SC(/N=C(/N)Nc1ccc3cnccc3c1)=NS2(=O)=O | > 65 | > 65 | > 65 |
| 5.39 | 5.62 | COc1cc(N/C(N)=N\C2=NS(=O)(=O)c3cc(C)c(Cl)cc3S2)cc(OC)c1OC | > 65 | > 65 | > 65 |
| 5.40 | 5.62 | Cc1cc2c(cc1Cl)SC(/N=C(/N)NC(=O)c1ccc3ccccc3c1)=NS2(=O)=O | > 65 | > 65 | > 65 |
| 5.42 | 5.64 | Cc1cc2c(cc1Cl)SC(/N=C(/N)Nc1ccc3ccccc3n1)=NS2(=O)=O | > 65 | > 65 | > 65 |
| 5.28 | 5.52 | Cc1cc2c(cc1Cl)SC(/N=C(/N)Nc1cncc3ccccc13)=NS2(=O)=O | > 65 | > 65 | > 65 |
| 5.25 | 5.44 | Cc1cc2c(cc1Cl)SC(/N=C(/N)Nc1cccc3cccnc13)=NS2(=O)=O | > 65 | > 65 | > 65 |
| 5.20 | 5.49 | COc1cccc2c(O)ccc(N/C(N)=N\C3=NS(=O)(=O)c4cc(C)c(Cl)cc4S3)c12 | > 65 | > 65 | > 65 |
